{"source": "patent US20220400679A1", "about": "“COMPOSITION FOR ENHANCING PLANT GROWTH” (CH Biotech R&D Co., Ltd., priority 2021, published 2022)", "key": {"[1]": {"system": "Glyphosate-tolerant soybean plants (S29RY05)", "assay": "Example 3 content of TBARS, soybean", "details": "3 days after application, glyphosate vs Control group, FIG. 14"}, "[2]": {"system": "Glyphosate-tolerant corn plants (D40SS48)", "assay": "Example 3 electrolyte leakage, corn", "format": "in vivo", "details": "3 days after application, glyphosate vs Control group, FIG. 6", "protocol": "(§1) One seed was seeded in one pot.\n(§2) Six (6) leaf disks (7.5 mm diameter) were cut from the sample leaves and immersed in 10 ml of deionized water at 25° C. for 24 hours. After that, the first electrolytic conductivity (EC1) of the sample solution was analyzed with an electrical conductivity meter (SevenCompact™ 5230 Conductivity Meter, Mettler-Toledo, Columbus, Ohio, USA). The sample leaf disks were then kept in the deionized water at 95° C. for 2 hours. After the temperature of the sample solution decreased to 25° C., the second electrolytic conductivity (EC2) of the sample solution was analyzed with the electrical conductivity meter again. Ten (10) milliliters of deionized water without any sample were used as control. Electrolyte leakage of the sample leaves was analyzed with the following equation.\n(§3) Electrolyte leakage (%)=(Sample EC1−Control EC1)×100/(Sample EC2−Control EC2)"}, "[3]": {"system": "Glyphosate-tolerant corn plants (D40SS48)", "assay": "Example 3 content of TBARS, corn", "details": "3 days after application, glyphosate vs Control group, FIG. 7"}, "[4]": {"system": "Glyphosate-tolerant corn plants (D40SS48)", "assay": "Example 2 different concentrations of components with glyphosate: shoot dry weight, corn", "format": "in vivo", "details": "glyphosate 4.87 g/L vs Control group (p<0.01), FIG. 3A", "protocol": "(§4) 2.1 Shoot dry weight: Seven (7) days after the application of reagents, leaves and stems of each plant were dried at 50° C. overnight, and then the dry weight was measured.\nas §1\n(§5) Methods for analyzing shoot dry weight and statistics are the same as described in Example 1."}, "[5]": {"system": "glutamine synthetase (GS) of soybean plants", "assay": "Example 3 activity of glutamine synthetase, soybean", "format": "in vivo", "details": "3 days after application, glyphosate vs Control group, FIG. 16", "protocol": "as §1\n(§6) The leaf powder and 1 ml of extraction solution, containing 10 mM Tris-HCl (pH7.6), 1 mM MgCl2, 1 mM EDTA, and 10 mM 2-Mercaptoethanol, were centrifuged at 4° C., 13,000 rcf for 30 minutes. […] The sample was centrifuged at room temperature, 3,000 rcf. Absorbance at an O.D. of 540 nm (A540) of the supernatant was measured."}, "[6]": {"system": "Glyphosate-tolerant soybean plants (S29RY05)", "assay": "Example 1 synergistic test with glyphosate: shoot dry weight, soybean", "format": "in vivo", "details": "7 days after application, glyphosate 4.87 g/L vs Control group (p<0.01), FIG. 2A", "protocol": "as §1, §4\n(§7) 2.2 Statistics: Unpaired Student's t-test was applied to assess numerical data statistical significance. Statistical significance was set at p-value less than 0.05."}, "[7]": {"system": "Glyphosate-tolerant soybean plants (S29RY05)", "assay": "Example 3 electrolyte leakage, soybean", "format": "in vivo", "details": "3 days after application, glyphosate vs Control group, FIG. 13", "protocol": "as §1, §2, §3"}, "[8]": {"system": "Glyphosate-tolerant soybean plants (S29RY05)", "assay": "Example 3 content of plant hormones, soybean", "format": "in vivo", "details": "with glyphosate treatment (4.87 g/L), 12 days after application, N = 3", "protocol": "as §1\n(§8) 2.8 Content of Plant Hormones: Twelve (12) days after the application of reagents, 1 g of fresh sample leaf was ground in liquid nitrogen and then mixed with 10 g extraction solution (80% (v/v) methanol, 1% (v/v) acetic acid) by a vortex mixer. The sample was then sonicated for 1 hour and centrifuged at 2,500 rpm for 10 minutes. The supernatant was collected, concentrated, dissolved in 1 ml of 100% methanol, and then analyzed for content of plant hormones with a tandem quadrupole mass spectrometer (Waters® Xevo® TQ MS, Waters Corporation, Milford, Mass., USA) and ACQUITY UPLC System (Waters Corporation, Milford, Mass., USA)."}, "[9]": {"system": "glutamate synthase (GOGAT) of soybean plants", "assay": "Example 3 activity of glutamate synthase, soybean", "format": "in vivo", "details": "3 days after application, glyphosate vs Control group, FIG. 17", "protocol": "as §1\n(§9) The leaf powder and 1 ml of extraction solution, containing 10 mM Tris-HCl (pH7.6), 1 mM MgCl2, 1 mM EDTA, and 10 mM 2-Mercaptoethanol, were centrifuged at 4° C., 13,000 rcf for 30 minutes. Zero-point-one-five (0.15) ml of the supernatant was mixed with the reaction solution containing 0.2 mL of 20 mM L-glutamine, 0.25 mL of 2 mM 2-oxoglutarate, 0.05 mL of 10 mM KCl, 1 mL of 25 mM Tris-HCl (pH7.6), and 0.1 mL 3 mM NADH to initiate the reaction. The GOGAT activity is determined by NADH reduction through measuring fluorescence intensity at excitation/emission wavelengths of 340/445 nm. NADH concentration is determined by reference to a NADH standard curve."}, "[10]": {"system": "nitrate reductase (NR) of corn plants", "assay": "Example 3 activity of nitrate reductase, corn", "format": "in vivo", "details": "3 days after application, glyphosate vs Control group, FIG. 8", "protocol": "as §1\n(§10) One (1) ml of potassium phosphate buffer (100 mM, pH7.4) containing 7.5 mM cysteine, 1 mM EDTA, and 1.5% casein was added to the sample, mixed with the sample, and then the mixed sample was centrifuged at 4° C., 13,000 relative centrifugal field (rcf) for 30 minutes. […] The sample was centrifuged at room temperature, 3,000 rcf. The supernatant was transferred to a new tube and mixed with 0.5 mL sulphanilamide (5.8 mM) and 0.5 mL N-(1-naphthyl)ethylenediamine (0.8 mM). The mixture was incubated for 30 minutes. […] KNO2 is used as a NO2^− concentration standard."}, "[11]": {"system": "glutamate synthase (GOGAT) of corn plants", "assay": "Example 3 activity of glutamate synthase, corn", "format": "in vivo", "details": "3 days after application, glyphosate vs Control group, FIG. 10", "protocol": "as §1, §9"}, "[12]": {"system": "nitrate reductase (NR) of soybean plants", "assay": "Example 3 activity of nitrate reductase, soybean", "format": "in vivo", "details": "3 days after application, glyphosate vs Control group, FIG. 15", "protocol": "as §1, §10"}, "[13]": {"system": "Glyphosate-tolerant corn plants (D40SS48)", "assay": "Example 1 synergistic test with glyphosate: shoot dry weight, corn", "format": "in vivo", "details": "7 days after application, glyphosate 4.87 g/L vs Control group (p<0.01), FIG. 1A", "protocol": "as §1, §4, §7"}, "[14]": {"system": "Glyphosate-tolerant corn plants (D40SS48)", "assay": "Example 3 analyses of leaves and roots (growth) after glyphosate treatment, corn", "format": "in vivo", "details": "7 days after application, glyphosate 4.87 g/L, N = 10", "protocol": "as §1\n(§11) 2.1 Analyses of Leaves: Seven (7) days after the application of reagents, plant height was measured, and leaves were collected. The leaf area of the fourth leaf of each corn plant and the total leaf area of each soybean plant were measured by a leaf analyzer (WinFOLIA™ Regent Instruments Inc., Québec, Canada). Leaves and stems of each plant were dried at 50° C. overnight, and then the dry weight was measured.\n(§12) 2.2 Analyses of Roots: Seven (7) days after the application of reagents, length of plant root was measured by a root analyzer (WinRHIZO™, Regent Instruments Inc., Québec, Canada). In addition, roots of each plant were dried at 50° C. overnight, and then the dry weight was measured."}, "[15]": {"system": "glutamine synthetase (GS) of corn plants", "assay": "Example 3 activity of glutamine synthetase, corn", "format": "in vivo", "details": "3 days after application, glyphosate vs Control group, FIG. 9", "protocol": "as §1, §6"}, "[16]": {"system": "Glyphosate-tolerant soybean plants (S29RY05)", "assay": "Example 3 analyses of leaves and roots (growth) after glyphosate treatment, soybean", "format": "in vivo", "details": "7 days after application, glyphosate 4.87 g/L", "protocol": "as §1, §11, §12"}, "[17]": {"system": "Glyphosate-tolerant soybean plants (S29RY05)", "assay": "Example 2 different concentrations of components with glyphosate: shoot dry weight, soybean", "format": "in vivo", "details": "glyphosate 4.87 g/L vs Control group (p<0.01), FIG. 4A", "protocol": "as §4, §1, §5"}, "[18]": {"system": "Glyphosate-tolerant corn plants (D40SS48)", "assay": "Example 3 content of plant hormones, corn", "format": "in vivo", "details": "with glyphosate treatment (4.87 g/L), 12 days after application, N = 3", "protocol": "as §1, §8"}}}
{"smiles": "O=C(O)CNCP(=O)(O)O", "note": "[Glyphosate only, glyphosate]", "values": [{"measurement": "TBARS level", "setting": "[1]", "result": "increase in TBARS level"}, {"measurement": "electrolyte leakage", "setting": "[2]", "result": "increase in electrolyte leakage"}, {"measurement": "TBARS level", "setting": "[3]", "result": "increase in TBARS level"}, {"measurement": "shoot dry weight", "setting": "[4]", "result": "significant decrease in shoot dry weight"}, {"measurement": "activities of glutamine synthetase (GS)", "setting": "[5]", "result": "decrease in activities"}, {"measurement": "shoot dry weight", "setting": "[6]", "result": "significant decrease in shoot dry weight"}, {"measurement": "electrolyte leakage", "setting": "[7]", "result": "increase in electrolyte leakage"}, {"measurement": "Phytohormone content: ABA", "setting": "[8]", "result": 1189, "unit": "ng/g FW"}, {"measurement": "Phytohormone content: Cytokinin (Zeatin+iPAs)", "setting": "[8]", "result": 0.68, "unit": "ng/g FW"}, {"measurement": "Phytohormone content: GA1", "setting": "[8]", "result": 832, "unit": "ng/g FW"}, {"measurement": "Phytohormone content: IAA", "setting": "[8]", "result": 28, "unit": "ng/g FW"}, {"measurement": "activities of glutamate synthase (GOGAT)", "setting": "[9]", "result": "decrease in activities"}, {"measurement": "activities of nitrate reductase (NR)", "setting": "[10]", "result": "decrease in activities"}, {"measurement": "activities of glutamate synthase (GOGAT)", "setting": "[11]", "result": "decrease in activities"}, {"measurement": "activities of nitrate reductase (NR)", "setting": "[12]", "result": "decrease in activities"}, {"measurement": "shoot dry weight", "setting": "[13]", "result": "significant decrease in shoot dry weight"}, {"measurement": "Plant height", "setting": "[14]", "result": 42.70, "unit": "cm"}, {"measurement": "Root dry weight", "setting": "[14]", "result": 0.35, "unit": "g"}, {"measurement": "The 4th leaf area", "setting": "[14]", "result": 89.45, "unit": "cm^2"}, {"measurement": "Total root length", "setting": "[14]", "result": 1405.69, "unit": "cm"}, {"measurement": "shoot dry weight", "setting": "[14]", "result": 1.30, "unit": "g"}, {"measurement": "activities of glutamine synthetase (GS)", "setting": "[15]", "result": "decrease in activities"}, {"measurement": "leaf curling symptoms (phenotype observation of soybean leaves)", "setting": "[16]; FIG. 12", "result": "causes leaf curling symptoms"}, {"measurement": "necrotic areas (phenotype observation of soybean leaves)", "setting": "[16]; FIG. 12", "result": "necrotic areas"}, {"measurement": "Root dry weight", "setting": "[16]; N = 10", "result": 0.28, "unit": "g"}, {"measurement": "Shoot fresh weight", "setting": "[16]; N = 10", "result": 2.46, "unit": "g"}, {"measurement": "The unifoliate leaf length", "setting": "[16]; N = 10", "result": 4.54, "unit": "cm"}, {"measurement": "Total leaf area", "setting": "[16]; N = 10", "result": 55.96, "unit": "cm^2"}, {"measurement": "Total root length", "setting": "[16]; N = 10", "result": 2047.40, "unit": "cm"}, {"measurement": "shoot dry weight", "setting": "[17]", "result": "significant decrease in shoot dry weight"}, {"measurement": "Phytohormone content: ABA", "setting": "[18]", "result": 2742, "unit": "ng/g FW"}, {"measurement": "Phytohormone content: Cytokinin (Zeatin+iPAs)", "setting": "[18]", "result": 0.75, "unit": "ng/g FW"}, {"measurement": "Phytohormone content: GA1", "setting": "[18]", "result": 625, "unit": "ng/g FW"}, {"measurement": "Phytohormone content: IAA", "setting": "[18]", "result": 45, "unit": "ng/g FW"}]}
